Literature values as cited in patent US20030165581A1, “Compositions for treating diabetes mellitus, methods of use and manufacturing process of the same” (priority 2002, published 2003).
Like-named read-outs stand apart in the source and are kept apart here.

What was measured:
[1] = test system: normal rabbits
[2] = test system: subjects with mild Type II diabetes; settings: for drop of average blood glucose level compared to placebo: dry powder base, two-piece hard gelatin capsule; for drop of average blood glucose level: oil based soft gelatin capsule, two weeks
[3] = test system: Type II diabetic rats; settings: supplementation with corosolic acid; control group showed elevation
[4] = test system: mice; settings: oral dose
[5] = test system: hereditary Type II diabetic mice
[6] = test system: subjects with mild Type II diabetes; settings: for average blood glucose level: soft gelatin formulation, 48 mg daily, control 168.3
[7] = test system: Ehrlich ascites tumor cells; settings: time course of glucose uptake
[8] = test system: rats with experimentally induced diabetes; settings: reduced from 300 mg/dL
[9] = test system: human subjects with mild Type II diabetes
[10] = supplemented with corosolic acid

## C[C@H]1[C@H](C)CC[C@]2(C(=O)O)CC[C@]3(C)C(=CC[C@@H]4[C@@]5(C)C[C@@H](O)[C@H](O)C(C)(C)[C@@H]5CC[C@]43C)[C@H]12 [corosolic acid]
[1]; after large doses
  time of peak reduction after administration: two to four
[1]; large doses
  blood sugar reduction: more than 57 mg per 100 mL blood
[1]; repetition of the first dose after two more hours
  time blood sugar remained low: more than 5 hours
[2]; 16 mg per day
  drop of average blood glucose level compared to placebo: 3.18%
  drop of average blood glucose level: 4.9%
[2]; 32 mg per day
  drop of average blood glucose level compared to placebo: 6.5%
  drop of average blood glucose level: 10.7%
[2]; 48 mg per day
  drop of average blood glucose level compared to placebo: 20.2%
  drop of average blood glucose level: 31.9%
[3]
  glucose levels: decrease in glucose levels
[4]
  blood sugar levels: reduces blood sugar levels
[5]; diet including corosolic acid for five weeks vs control diet
  increase of plasma glucose levels: completely suppressed
[5]; [10]
  level of serum insulin: lowered
  total plasma cholesterol: lowered
  urinary excreted glucose: lowered
[6]; 15 days of washout after soft gelatin treatment
  blood glucose level during washout: 131.7 mg/dL
[6]; 30 days of washout after soft gelatin treatment
  blood glucose level during washout: 153.2 mg/dL
[6]; 45 days of washout after soft gelatin treatment
  blood glucose level during washout: 168.2 mg/dL
[6]; compared to untreated (diabetic) control conditions
  decline in blood glucose levels after a meal: sharper decline
[6]; dry-powder based formulation
  weight loss: no weight loss
[6]; oil-based formulation in a soft gelatin capsule
  average weight loss: 3.2 pounds
[6]; oral dose, cross-over study
  adverse effects: no signs of adverse effects
[6]; 15th day of treatment
  average blood glucose level: 127.2 mg/deciliter
[6]; 30th day of treatment
  average blood glucose level: 115.1 mg/deciliter
[6]; washout period blood glucose levels
  memory effect after termination of the treatment: up to four
[7]
  glucose transport-stimulating activity (glucose uptake by Ehrlich cells): significant glucose transport-stimulating activity
[8]
  blood sugar level after corosolic acid: 150 mg/dL
[9]; short-term (four weeks) treatment
  adverse effects: no signs of adverse effects
[9]; tablet after each meal three times daily, four weeks, vs placebo
  blood glucose levels: effective in reducing blood glucose levels
